Results as given in article PMC4684281, “Antitumor Effects and Mechanism of Novel Emodin Rhamnoside Derivatives against Human Cancer Cells In Vitro” (PLoS ONE, 2015).
“And” between values parts separate entries of the source, which are not always exact repeats. Equal values may be shown once.

Tested on: HepG2 cells
Experiment: Cell cycle analysis (PI staining)
Assay type: cell-based, Human
Conditions: 48h; for Percentage of cell cycle distribution, G2/M: control 9.68±3.46%; for Percentage of cell cycle distribution, G0/G1: control 67.48±3.94%
Procedure: HepG2 cells in logarithmic growth phase were inoculated in 10cm culture plates at density of 5×10^5 cells and incubated overnight and allowed to attach. After being exposed to EM-d-Rha at specific concentrations for 48h, cells were harvested and washed with cold PBS twice. Then the collected cells were fixed with 1mL PBS and 3mL cold 100% ethanol at 4°C overnight. After that, the cells were again harvested by centrifugation at 300×g for 10 min. The cells were washed with cold PBS and re-suspended in 450 μL PBS, and then treated with 50μL ribonuclease (RNase,10mg/mL) at 37°C for 15min. 500μL of propidium iodide (PI, 50μg/ml) was added to the samples. After the cells were incubated for 30 min at 4°C in the dark, the cell cycle distribution was measured using an BD FACSCalibur Flow cytometer (BD Biosciences, USA), and 10,000cells were counted for each sample. The percentage of cells in different phases of the cell cycle was analyzed by flow Jo (BD Biosciences, USA). The experiment was repeated three times.

SMILES: CC(=O)O[C@@H]1[C@@H](O[C@@H]2O[C@@H](C)[C@H](O)[C@@H](OC(C)=O)[C@H]2OC(C)=O)[C@H](C)O[C@@H](Oc2cc(O)c3c(c2)C(=O)c2cc(C)cc(O)c2C3=O)[C@@H]1OC(C)=O [S-8, 3-(2”,3”-Di-O-acetyl-α-L-rhamnopyranosyl-(1→4)-2’,3’-di-O-acetyl-α-L-rhamnopyranosyl)-emodin]
- Percentage of cell cycle distribution, G2/M (HepG2, 2.5μM): 7.01±1.73%
- Percentage of cell cycle distribution, S (HepG2, 2.5μM, control 23.19±2.18%, listed as EM-d-Rha): 28.59% and 28.59±3.75%
- Percentage of cell cycle distribution, G0/G1 (HepG2, 2.5μM): 61.37±2.16%
- Percentage of cell cycle distribution, G2/M (HepG2, 5.0μM): 10.31±3.08%
- Percentage of cell cycle distribution, G0/G1 (HepG2, 5.0μM): 51.03±8.84%
- Percentage of cell cycle distribution, G2/M (HepG2, 10.0μM): 7.96±2.07%
- Percentage of cell cycle distribution, G0/G1 (HepG2, 10.0μM): 52.35±9.37%
